What was measured:
Type in all cases: cell-based
[1] = target: human α1G T-type channels (Homo sapiens, UniProt O43497); assay: T-type calcium channel block, whole cell patch clamp, α1G; settings: HEK cells stably expressing human α1G; mainly non-inactivated protocol; values above 10,000 nM represented as 10000
How it was run: (§1)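 Blockade of T-type current was measured in human α1G- or α1H-expressing HEK 293 cells using whole-cell recording with ~5 MΩ pipettes. Test compounds, dissolved in external solution containing 0.1-0.01% DMSO, were applied close to the cell, and block was examined under both non-inactivating and inactivating voltage protocols.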

[2] = target: N-type calcium channel subunits (α1B, α2δ, and β3a) (Homo sapiens, UniProt Q00975); assay: Block of Cav2.2 channel, whole cell voltage clamp, manual and PatchXpress; settings: Table 5; table follows Assay Example 3 (whole cell voltage clamp / PatchXpress); assay not given
How it was run: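 Percent block taken as current amplitude ratio with versus without compound, applied in rising doses; IC50 fitted where one cell received multiple doses. Protocol: 50 ms pulses to +20 mV at 0.067 Hz from […] or −90 mV holding; P/n leak subtraction, no junction-potential correction; manual and PatchXpress recordings.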

[3] = target: human α1H T-type channels (Homo sapiens, UniProt O95180); assay: T-type calcium channel block, whole cell patch clamp, α1H; settings: HEK cells stably expressing human α1H; mainly non-inactivated protocol; values above 10,000 nM represented as 10000
How it was run: as §1

human α1G T-type channels, sequence (O43497 whole entry): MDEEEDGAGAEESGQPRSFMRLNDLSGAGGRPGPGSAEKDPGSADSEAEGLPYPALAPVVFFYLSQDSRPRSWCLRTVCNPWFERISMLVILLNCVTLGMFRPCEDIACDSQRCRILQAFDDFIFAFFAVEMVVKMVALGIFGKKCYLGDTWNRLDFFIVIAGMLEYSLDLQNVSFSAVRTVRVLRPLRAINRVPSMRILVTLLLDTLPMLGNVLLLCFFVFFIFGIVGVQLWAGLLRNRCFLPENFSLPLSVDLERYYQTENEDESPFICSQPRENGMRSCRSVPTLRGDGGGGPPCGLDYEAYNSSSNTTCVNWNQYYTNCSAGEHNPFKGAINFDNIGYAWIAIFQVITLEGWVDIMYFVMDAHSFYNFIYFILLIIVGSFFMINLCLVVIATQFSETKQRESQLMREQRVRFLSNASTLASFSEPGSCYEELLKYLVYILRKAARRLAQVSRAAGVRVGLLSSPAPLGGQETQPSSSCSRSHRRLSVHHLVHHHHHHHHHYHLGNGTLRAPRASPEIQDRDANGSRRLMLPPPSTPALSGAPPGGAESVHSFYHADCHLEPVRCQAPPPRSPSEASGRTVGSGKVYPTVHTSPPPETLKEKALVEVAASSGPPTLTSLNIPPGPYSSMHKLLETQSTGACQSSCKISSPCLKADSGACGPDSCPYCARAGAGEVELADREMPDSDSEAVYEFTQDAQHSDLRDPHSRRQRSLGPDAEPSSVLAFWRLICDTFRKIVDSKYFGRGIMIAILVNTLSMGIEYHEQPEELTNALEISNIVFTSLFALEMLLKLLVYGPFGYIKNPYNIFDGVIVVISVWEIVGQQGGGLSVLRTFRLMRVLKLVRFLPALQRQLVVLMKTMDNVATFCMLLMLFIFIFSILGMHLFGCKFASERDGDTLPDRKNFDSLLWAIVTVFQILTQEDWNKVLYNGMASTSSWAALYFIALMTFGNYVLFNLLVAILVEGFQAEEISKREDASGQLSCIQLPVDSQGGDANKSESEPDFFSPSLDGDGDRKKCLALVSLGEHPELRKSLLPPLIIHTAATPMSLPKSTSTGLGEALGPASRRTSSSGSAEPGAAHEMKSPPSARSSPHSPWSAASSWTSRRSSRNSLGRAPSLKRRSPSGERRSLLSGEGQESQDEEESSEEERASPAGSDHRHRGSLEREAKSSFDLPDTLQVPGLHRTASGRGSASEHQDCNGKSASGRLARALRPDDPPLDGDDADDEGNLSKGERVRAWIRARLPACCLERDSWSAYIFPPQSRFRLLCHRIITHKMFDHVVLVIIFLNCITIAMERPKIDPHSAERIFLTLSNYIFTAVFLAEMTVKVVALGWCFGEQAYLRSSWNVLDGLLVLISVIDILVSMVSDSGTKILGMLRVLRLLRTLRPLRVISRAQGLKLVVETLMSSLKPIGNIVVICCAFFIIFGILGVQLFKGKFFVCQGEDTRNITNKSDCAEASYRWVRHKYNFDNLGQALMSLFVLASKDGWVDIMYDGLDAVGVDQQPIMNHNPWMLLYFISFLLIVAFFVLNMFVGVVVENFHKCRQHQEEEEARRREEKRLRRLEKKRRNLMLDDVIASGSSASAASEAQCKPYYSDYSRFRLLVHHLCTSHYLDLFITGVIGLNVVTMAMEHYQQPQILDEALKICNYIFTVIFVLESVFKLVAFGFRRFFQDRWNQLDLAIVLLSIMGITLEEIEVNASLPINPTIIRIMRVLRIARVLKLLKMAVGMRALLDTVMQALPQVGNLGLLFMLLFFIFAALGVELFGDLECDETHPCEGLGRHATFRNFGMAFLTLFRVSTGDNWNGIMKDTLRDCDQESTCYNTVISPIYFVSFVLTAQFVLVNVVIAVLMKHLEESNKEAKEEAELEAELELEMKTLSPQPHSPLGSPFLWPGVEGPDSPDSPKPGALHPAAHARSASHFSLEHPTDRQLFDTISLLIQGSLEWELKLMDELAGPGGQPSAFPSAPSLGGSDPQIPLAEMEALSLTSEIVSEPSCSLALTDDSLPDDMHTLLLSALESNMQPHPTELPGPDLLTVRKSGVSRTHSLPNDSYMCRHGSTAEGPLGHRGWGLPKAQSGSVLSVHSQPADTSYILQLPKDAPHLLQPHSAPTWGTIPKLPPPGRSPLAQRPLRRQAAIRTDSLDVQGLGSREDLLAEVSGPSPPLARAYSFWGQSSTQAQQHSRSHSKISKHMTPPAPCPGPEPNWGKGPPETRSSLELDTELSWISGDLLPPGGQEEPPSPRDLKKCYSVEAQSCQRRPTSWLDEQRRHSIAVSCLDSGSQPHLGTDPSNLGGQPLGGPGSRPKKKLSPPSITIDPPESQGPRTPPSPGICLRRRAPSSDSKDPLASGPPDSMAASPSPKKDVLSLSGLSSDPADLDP
human α1H T-type channels, sequence (O95180 whole entry): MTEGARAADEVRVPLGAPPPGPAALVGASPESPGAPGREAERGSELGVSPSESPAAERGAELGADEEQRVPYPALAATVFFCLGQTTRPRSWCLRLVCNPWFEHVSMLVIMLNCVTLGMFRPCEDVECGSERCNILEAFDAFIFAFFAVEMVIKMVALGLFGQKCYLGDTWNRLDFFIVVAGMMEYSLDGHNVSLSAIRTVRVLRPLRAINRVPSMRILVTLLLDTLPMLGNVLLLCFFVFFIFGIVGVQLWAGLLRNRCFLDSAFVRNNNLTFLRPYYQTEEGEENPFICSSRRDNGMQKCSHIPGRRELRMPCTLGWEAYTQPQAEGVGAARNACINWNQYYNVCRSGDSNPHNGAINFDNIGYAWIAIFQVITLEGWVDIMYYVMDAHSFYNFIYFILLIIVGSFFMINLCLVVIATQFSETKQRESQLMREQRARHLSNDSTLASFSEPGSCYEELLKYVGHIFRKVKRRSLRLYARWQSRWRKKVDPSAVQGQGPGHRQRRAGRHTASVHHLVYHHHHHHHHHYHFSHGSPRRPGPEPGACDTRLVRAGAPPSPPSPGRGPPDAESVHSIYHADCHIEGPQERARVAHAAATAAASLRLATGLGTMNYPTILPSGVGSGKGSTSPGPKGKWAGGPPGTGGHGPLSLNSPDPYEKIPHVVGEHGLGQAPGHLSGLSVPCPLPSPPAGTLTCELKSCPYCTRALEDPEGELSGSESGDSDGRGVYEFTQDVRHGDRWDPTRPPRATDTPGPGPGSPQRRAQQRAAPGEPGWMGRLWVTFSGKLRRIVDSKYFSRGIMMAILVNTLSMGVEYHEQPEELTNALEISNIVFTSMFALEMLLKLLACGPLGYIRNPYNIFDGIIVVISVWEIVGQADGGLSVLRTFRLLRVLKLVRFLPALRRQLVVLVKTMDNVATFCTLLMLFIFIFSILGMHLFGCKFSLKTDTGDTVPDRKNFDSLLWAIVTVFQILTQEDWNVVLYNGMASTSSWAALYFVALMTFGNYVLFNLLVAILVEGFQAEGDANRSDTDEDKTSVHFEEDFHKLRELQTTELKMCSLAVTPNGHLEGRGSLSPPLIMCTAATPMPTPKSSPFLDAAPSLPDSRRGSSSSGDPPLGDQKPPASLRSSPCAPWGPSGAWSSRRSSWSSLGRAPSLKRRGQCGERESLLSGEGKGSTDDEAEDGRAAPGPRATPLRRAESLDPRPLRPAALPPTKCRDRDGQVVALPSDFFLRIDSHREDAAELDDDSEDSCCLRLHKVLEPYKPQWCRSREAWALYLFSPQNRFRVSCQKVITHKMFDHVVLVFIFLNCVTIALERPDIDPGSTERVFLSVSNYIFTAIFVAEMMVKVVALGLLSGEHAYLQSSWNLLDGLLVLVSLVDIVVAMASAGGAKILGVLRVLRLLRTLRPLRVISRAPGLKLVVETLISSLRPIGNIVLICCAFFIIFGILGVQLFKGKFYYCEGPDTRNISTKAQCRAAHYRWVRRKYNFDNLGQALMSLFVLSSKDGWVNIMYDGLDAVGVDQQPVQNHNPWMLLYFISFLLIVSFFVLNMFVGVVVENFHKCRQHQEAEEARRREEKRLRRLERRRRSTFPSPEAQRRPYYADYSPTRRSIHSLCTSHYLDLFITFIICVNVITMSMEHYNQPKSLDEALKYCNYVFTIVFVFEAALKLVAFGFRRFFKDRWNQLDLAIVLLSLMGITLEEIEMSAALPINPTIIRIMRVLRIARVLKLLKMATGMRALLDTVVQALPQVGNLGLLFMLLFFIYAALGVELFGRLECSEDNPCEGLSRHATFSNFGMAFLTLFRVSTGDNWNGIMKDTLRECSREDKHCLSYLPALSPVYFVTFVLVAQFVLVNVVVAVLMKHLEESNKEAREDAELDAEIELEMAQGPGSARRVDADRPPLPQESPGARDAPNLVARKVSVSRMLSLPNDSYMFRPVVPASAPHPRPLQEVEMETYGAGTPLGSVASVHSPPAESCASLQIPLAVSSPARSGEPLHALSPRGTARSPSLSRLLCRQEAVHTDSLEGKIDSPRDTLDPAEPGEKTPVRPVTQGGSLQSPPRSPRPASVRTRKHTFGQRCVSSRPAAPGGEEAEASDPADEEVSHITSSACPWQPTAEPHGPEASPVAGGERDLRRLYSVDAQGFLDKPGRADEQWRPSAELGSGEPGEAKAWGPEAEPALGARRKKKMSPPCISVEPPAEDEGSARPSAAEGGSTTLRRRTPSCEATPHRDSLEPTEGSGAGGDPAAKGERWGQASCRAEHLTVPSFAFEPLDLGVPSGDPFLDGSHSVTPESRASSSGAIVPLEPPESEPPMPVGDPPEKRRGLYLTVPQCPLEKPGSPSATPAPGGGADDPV

Molecule	IC50 [1] [nM]	IC50 [3] [nM]	IC50 [2] [nM]
2-(4,4-difluoropiperidin-1-yl)-N- ((1R,4R)-4-((3- (trifluoromethyl)phenylsulfonyl) methyl)cyclohexyl)acetamide [Compound 166]	> 10000	8470	750
3-chloro-5-fluoro-N-(1- methyl-4-(3-(trifluoromethyl) phenylsulfonyl)cyclohexyl) benzamide [Compound 318]	2430	1330	620
4-chloro-2-(methylsulfonyl)-N- ((1R,4R)-4-(3- (trifluoromethyl)phenylsulfonyl) cyclohexyl)benzamide [Compound 121]	720	930	3730
4-chloro-2-methoxy-N-((1S,4S)-4- ((3- (trifluoromethyl)phenylsulfonyl) methyl)cyclohexyl)benzamide [Compound 140]	1100	700	700
CC1(C)CCC(NCC(C)(C)S(=O)(=O)c2cccc(C(F)(F)F)c2)CC1 [Compound 518, 4,4-dimethyl-N-(2-methyl-2-(3-(trifluoromethyl)phenylsulfonyl)propyl) cyclohexanamine]	600	4120	
CC(C)(CCNC(=O)c1ncc(C(F)(F)F)cc1S(C)(=O)=O)S(=O)(=O)c1cccc(C(F)(F)F)c1 [Compound 523, N-(3-methyl-3-(3-(trifluoromethyl)phenylsulfonyl)butyl)-3-(methylsulfonyl)-5-(trifluorornethyl)picolinamide]	560	> 10000	
CC(C)(CCNC(=O)c1ccc(Cl)cc1S(C)(=O)=O)S(=O)(=O)c1cccc(C(F)(F)F)c1 [Compound 529, 4-chloro-N-(3-methyl-3-(3-(trifluoromethyl)phenylsulfonyl)butyl)-2-(methylsulfonyl)benzamide]	780	9690	
O=C(N[C@H]1CC[C@@](F)(S(=O)(=O)c2cccc(C(F)(F)F)c2)CC1)[C@H]1CCCCN1 [Compound 531, (R)-N-((1S,4S)-4-fluoro-4-(3-(trifluoromethyl)phenylsulfonyl)cyclohexyl) piperidine-2-carboxamide]	3560	> 10000	
O=C(N[C@H]1CC[C@@](F)(S(=O)(=O)c2cccc(C(F)(F)F)c2)CC1)[C@@H]1CCCCN1 [Compound 532, (S)-N-((1S,4R)-4-fluoro-4-(3-(trifluoromethyl)phenylsulfonyl)cyclohexyl) piperidine-2-carboxamide]	1630	> 10000	
Cn1nc(C(F)(F)F)cc1C(=O)NCCC(C)(C)S(=O)(=O)c1cc(F)cc(C(F)(F)F)c1 [Compound 535, N-(3-(3-fluoro-5-(trifluoromethyl)phenylsulfonyl)-3-methylbutyl)-l-methyl-3-(trifluoromcthyl)-1H-pyrazole-5-carboxamide]	700	4140	
CC(C)(CCNC(=O)c1cc(C(F)(F)F)nc(S(C)(=O)=O)c1)S(=O)(=O)c1cc(F)cc(C(F)(F)F)c1 [Compound 536, N-(3-(3-fluoro-5-(trifluoromethyl)phenylsulfonyl)-3-methylbutyl)-2-(methylsulfonyl)-6-(trifluoromethyl) isonicotinamide]	640	> 10000	

The next lines start with results.

IC50 [1] [nM]	IC50 [3] [nM]	Molecule	IC50 [2] [nM]
350	540	3-chloro-4-fluoro-N-((1R,4R)4-(3- (trifluoromethyl)phenylsulfonyl) cyclohexyl)benzamide [Compound 124]	510
430	330	3-chloro-5-fluoro-N-((1S,4S)-4-((3- (trifluoromethyl)phenylsulfonyl) methyl)cyclohexyl)benzamide [Compound 137]	320
30	440	4-chloro-3-fluoro-N-((1R,4R)-4-(3- (trifluoromethyl)phenylsulfonyl) cyclohexyl)benzamide [Compound 123]	660
550	3280	CC(C)(CN[C@H]1CC[C@@H](C(F)(F)F)CC1)S(=O)(=O)c1cccc(C(F)(F)F)c1 [Compound 519, (1S,4S)-N-(2-methyl-2-(3-(trifluoromethyl)phenylsulfonyl)propyl)-4-(trifluoromethyl) cyclohexanamine]	
110	470	CC(C)(CCNC(=O)c1ccc(Oc2ccc(F)cc2)cc1)S(=O)(=O)c1cccc(C(F)(F)F)c1 [Compound 520, 4-(4-fluorophenoxy)-N-(3-methyl-3-(3-(trifluoromethyl)phenylsulfonyl)butyl) benzamide]	
470	910	CC(C)(CNC(=O)c1ccc(Oc2ccc(F)cc2)cc1)S(=O)(=O)c1cccc(C(F)(F)F)c1 [Compound 521, 4-(4-fluorophenoxy)-N-(2-methyl-2-(3-(trifluoromethyl)phenylsulfonyl)propyl) benzamide]	
380	2070	CC(C)(C(=O)Nc1ccc(Oc2ccc(F)c(Cl)c2)nc1)S(=O)(=O)c1cccc(C(F)(F)F)c1 [Compound 524, N-(6-(3-chloro-4-tluorophenoxy)pyridin-3-yl)-2-methyl-2-(3-(trifluoromethyl)phenylsulfonyl)propanamide]	
470	2880	CC(C)(C(=O)Nc1ccc(Oc2ccc(C(F)(F)F)nc2)nc1)S(=O)(=O)c1cccc(C(F)(F)F)c1 [Compound 525, 2-methyl-2-(3-(trifluoromethyl)phenylsulfonyl)-N-(6-(6-(trifluoromethyl)pyridin-3-yloxy)pyridin-3-yl) propanamide]	
240	2930	CC(C)(CCNC(=O)c1cc(C(F)(F)F)nc(S(C)(=O)=O)c1)S(=O)(=O)c1cccc(C(F)(F)F)c1 [Compound 526, N-(3-methyl-3-(3-(trifluoromethyl)phenylsulfonyl)butyl)-2-(methylsulfonyl)-6-(trifluoromethyl)isonicotinamide]	
70	> 10000	CC(C)S(=O)(=O)c1cc(C(F)(F)F)cnc1C(=O)NCC(C)(C)S(=O)(=O)c1cccc(C(F)(F)F)c1 [Compound 527, 3-(isopropylsulfonyl)-N-(2-methyl-2-(3-(trifluoromethyl)phenylsulfonyl)propyl)-5-(trifluoromethyl)picolinamide]	
80	2410	CC(C)S(=O)(=O)c1cc(C(F)(F)F)cnc1C(=O)NCCC(C)(C)S(=O)(=O)c1cccc(C(F)(F)F)c1 [Compound 528, 3-(isopropylsulfonyl)-N-(3-methyl-3-(3-(trifluoromethyl)phenylsulfonyl)butyl)-5-(trifluoromethyl)picolinamide]	
350	1080	CC(C)(CCNC(=O)c1ccc(F)c(C(F)(F)F)c1)S(=O)(=O)c1cc(F)cc(C(F)(F)F)c1 [Compound 533, 4-fluoro-N-(3-(3-fluoro-5-(trifluoromethyl)phenylsulfonyl)-3-methylbutyl)-3-(trifluoromethyl)benzamide]	
470	740	CC(C)(CCNC(=O)c1ccc(Oc2ccc(Cl)cc2)cc1)S(=O)(=O)c1cc(F)cc(C(F)(F)F)c1 [Compound 537, 4-(4-chlorophenoxy)-N-(3-(3-fluoro-5-(trifluoromethyl)phenylsulfonyl)-3-methylbutyl)benzamide]	

From patent US20120245137A1 (Zalicus Pharmaceuticals Ltd., priority 2009, published 2012)
